Here are results for 23 compounds from patent US5849731A, “Indole derivatives and medical application thereof” (Toray Industries, Inc., priority 1995, dated 1998).

The target in one experiment is T1, δ-opioid (Mus musculus, UniProt P32300).
T1 construct: Each of the vas deferens isolated from the mice was hung in a Magnus tube; from tissue; host or cells: isolated vas deferens of male ddy strain mice
As to the kind of experiment: δ-opioid antagonism against DPDPE in mouse vas deferens (MVD). The class given is biochemical, mouse (male ddy strain). How it is done: Using mouse vas deferens (MVD), antagonistic compounds were examined for antagonism against a δ-opioid agonist DPDPE, and agonistic compounds were examined for inhibitory activity against MVD contraction by electric stimulation, and for antagonism by a δ-opioid antagonist NTI.
Male ddy strain mice were used in this experiment. Each of the vas deferens isolated from the mice was hung in a Magnus tube which was filled with a Krebes-Henseleit solution (NaCl […]; KCl 4.7 mM; CaCl2 2.5 mM; KH2 PO4 1.1 mM; NaHCO3 25 mM; glucose 11 mM), and aerated with a gas of 5% carbon dioxide and 95% oxygen and maintained at 37° C. Electric stimulation was applied through upper and lower ring-shaped platinum electrodes at 0.1 Hz and 5.0 mS. Tissue contraction was recorded on a polygraph using an isometric transducer.
Initially, DPDPE was added in a cumulative manner to determine the IC50 value (concentration for 50% inhibition of contraction induced by electric stimulation). Next, 100 nM of a sample compound was added to the system beforehand, and 20 minutes later, DPDPE was added in a cumulative manner. According to the above procedure, the ratio of the IC50 value of DPDPE in the presence of the sample compound to that in the absence of it was determined, and the pA2 value was calculated in accordance with the Schild, et al.'s method [Schild, H. O., Br. J. Pharamacol. Chamother. 4, 277 (1949)].

Another experiment deals with capsaicin-induced cough. As to the kind of experiment: Antitussive action in rat, capsaicin-induced cough. The class given is in vivo. The following applies: ip, 0.5 h, dosage for 50% cough inhibition, intraperitoneal, 10% DMSO solution, 30 minutes after administration. The protocol:
Evaluation of Antitussive Action in Rat as a Model for Capsaicin-Induced Cough
Cough was induced by forcing rats to inhale capsaicin (60 μM) which was nebulized by an ultrasonic nebulizer, and fed to caps over the rats' heads through silicone tubes by a respirator. Capsaicin was fed for inhalation at a rate of 70 times/min. and 10 ml each time.
Two hundred and seventy minutes before the drug administration, capsaicin was inhaled for 5 minutes, and inducement of coughing was confirmed during this period. Thirty minutes after the drug administration, capsaicin was inhaled for 5 minutes, and the number of induced coughs during capsaicin inhalation was counted. Antitussive effect was evaluated by determining an inhibitory ratio, namely, the ratio of the number of coughs after the drug administration to that before the drug administration. Capsaicin was dissolved in saline. Each drug was dissolved in a 10% DMSO solution and intraperitoneally administered. The effect of the drug is expressed with an ED50 value which is the dosage for 50% cough inhibition

T1 sequence (P32300 whole entry): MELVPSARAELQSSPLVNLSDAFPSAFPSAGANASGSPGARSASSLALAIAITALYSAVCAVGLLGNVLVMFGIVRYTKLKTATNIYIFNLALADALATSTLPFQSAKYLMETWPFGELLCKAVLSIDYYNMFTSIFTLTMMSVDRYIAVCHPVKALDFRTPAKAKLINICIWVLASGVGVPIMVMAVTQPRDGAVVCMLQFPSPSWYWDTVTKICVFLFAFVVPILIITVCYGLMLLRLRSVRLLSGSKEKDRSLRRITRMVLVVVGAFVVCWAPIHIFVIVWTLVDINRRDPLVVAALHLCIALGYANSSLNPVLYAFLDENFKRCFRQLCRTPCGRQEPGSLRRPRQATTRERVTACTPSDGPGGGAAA

In the case of `Oc1ccc2c3c1O[C@H]1c4c(c5cc(Cl)cc6c5n4CCC6)C[C@@]4(O)[C@@H](C2)N(CC2CC2)CC[C@]314` [Compound 8, 17-cyclopropylmethyl-6,7-didehydro-4,5α-epoxy-3,14β-dihydroxy-1',7'-trimethylene-5'-chloro-6,7,2',3'-indolomorphinan], the Kb (usually the equilibrium dissociation constant of an antagonist, usually derived from a functional assay) at δ-opioid was 5.01 nM. Turning to `COc1ccc2c3c1O[C@H]1c4c(c5ccc(OC)c6c5n4CCC6)C[C@@]4(O)[C@@H](C2)N(CC2CC2)CC[C@]314` [Compound 12, 17-cyclopropylmethyl-6,7-didehydro-4,5α-epoxy-3,6'-dimethoxy-14β-hydroxy-1',7'-trimethylene-6,7,2',3'-indolomorphinan], the 50% effective dose (ED50) (commonly the dose that gives a 50% effect, or the effect in half of the subjects) in the experiment on capsaicin-induced cough is 2.5 µg/kg. The same measure, in the same setting: then `COc1ccc2c3c1O[C@H]1c4c(c5cc(C)cc6c5n4CCC6)C[C@@]4(O)[C@@H](C2)N(CC2CC2)CC[C@]314` [Compound 13, 17-cyclopropylmethyl-6,7-didehydro-4,5α-epoxy-3-methoxy-14β-hydroxy-1',7'-trimethylene-5'-methyl-6,7,2',3'-indolomorphinan], with 5.33 µg/kg; and `COc1ccc2c3c1O[C@H]1c4c(c5c(C)ccc6c5n4CCC6)C[C@@]4(O)[C@@H](C2)N(CC2CC2)CC[C@]314` [Compound 14, 17-cyclopropylmethyl-6,7-didehydro-4,5α-epoxy-3-methoxy-14β-hydroxy-1',7'-trimethylene-4'-methyl-6,7,2',3'-indolomorphinan], with 23.8 µg/kg; and `COc1ccc2c3c1O[C@H]1c4c(c5cccc6c5n4CCCC6)C[C@@]4(O)[C@@H](C2)N(CC2CC2)CC[C@]314` [Compound 15, 17-cyclopropylmethyl-6,7-didehydro-4,5α-epoxy-3-methoxy-14β-hydroxy-1',7'-tetramethylene-6,7,2',3'-indolomorphinan], with 9.68 µg/kg. For the compound `COc1ccc2c3c1O[C@H]1c4c(c5cc(F)cc6c5n4CCC6)C[C@@]4(O)[C@@H](C2)N(CC2CC2)CC[C@]314` [Compound 16, 17-cyclopropylmethyl-6,7-didehydro-4,5α-epoxy-3-methoxy-14β-hydroxy-1',7'-trimethylene-5'-fluoro-6,7,2',3'-indolomorphinan], it took a dose of 4.73 µg/kg to reach the 50% effect level in the experiment on capsaicin-induced cough (ED50). Compound `COc1ccc2c3c1O[C@H]1c4c(c5cccc6c5n4Cc4ccccc4-6)C[C@@]4(O)[C@@H](C2)N(CC2CC2)CC[C@]314` [Compound 17, 17-cyclopropylmethyl-6,7-didehydro-4,5α-epoxy-3-methoxy-14β-hydroxy-1',7'-(2",3"-benzotrimethylene)-6,7,2',3'-indolomorphinan] returned a median effective dose (ED50) in the experiment with capsaicin-induced cough of 5.02 µg/kg. The ED50 values of the last two compounds are within 1.5-fold of each other. On the same count and under the same terms, under `COc1ccc2c3c1O[C@H]1c4c(c5cc(Cl)cc6c5n4CCC6)C[C@@]4(O)[C@@H](C2)N(CC2CC2)CC[C@]314` [Compound 18, 17-cyclopropylmethyl-6,7-didehydro-4,5α-epoxy-3-methoxy-14β-hydroxy-1',7'-trimethylene-5'-chloro-6,7,2',3'-indolomorphinan] stands 13.4 µg/kg. For the compound `COc1cc2c3c(c1)c1c(n3CCC2)[C@@H]2Oc3c(O)ccc4c3[C@@]23CCN(CC2CC2)[C@H](C4)[C@]3(O)C1` [Compound 19, 17-cyclopropylmethyl-6,7-didehydro-4,5α-epoxy-3,14β-dihydroxy-1',7'-trimethylene-5'-methoxy-6,7,2',3'-indolomorphinan], the Kb at δ-opioid was 1 nM.

At δ-opioid, `Oc1ccc2c3c1O[C@H]1c4c(c5cc(Br)cc6c5n4CCC6)C[C@@]4(O)[C@@H](C2)N(CC2CC2)CC[C@]314` [Compound 20, 17-cyclopropylmethyl-6,7-didehydro-4,5α-epoxy-3,14β-dihydroxy-1',7'-trimethylene-5'-bromo-6,7,2',3'-indolomorphinan] gave a Kb of 3.98 nM. On the same count and under the same terms, then `Oc1ccc2c3c1O[C@H]1c4c(c5cccc6c5n4CCCCC6)C[C@@]4(O)[C@@H](C2)N(CC2CC2)CC[C@]314` [Compound 21, 17-cyclopropylmethyl-6,7-didehydro-4,5α-epoxy-3,14β-dihydroxy-1',7'-pentamethylene-6,7,2',3'-indolomorphinan], with 10 nM; and `Oc1ccc2c3c1O[C@H]1c4c(c5cccc6c5n4CCS6)C[C@@]4(O)[C@@H](C2)N(CC2CC2)CC[C@]314` [Compound 22, 17-cyclopropylmethyl-6,7-didehydro-4,5α-epoxy-3,14β-dihydroxy-7',1'-epithioethano-6,7,2',3'-indolomorphinan], with 0.794 nM. Same read-out and setting: then `Oc1ccc2c3c1O[C@H]1c4c(c5cccc6c5n4CCO6)C[C@@]4(O)[C@@H](C2)N(CC2CC2)CC[C@]314` [Compound 23, 17-cyclopropylmethyl-6,7-didehydro-4,5α-epoxy-3,14β-dihydroxy-7',1'-epoxyethano-6,7,2',3'-indolomorphinan], with 0.158 nM; and `Oc1ccc2c3c1O[C@H]1c4c(c5c(C(F)(F)F)ccc6c5n4CCC6)C[C@@]4(O)[C@@H](C2)N(CC2CC2)CC[C@]314` [Compound 24, 17-cyclopropylmethyl-6,7-didehydro-4,5α-epoxy-3,14β-dihydroxy-1',7'-trimethylene-4'-trifluoromethyl-6,7,2',3'-indolomorphinan], with 10 nM; and `CC1(C)Cc2cccc3c4c(n(c23)C1)[C@@H]1Oc2c(O)ccc3c2[C@@]12CCN(CC1CC1)[C@H](C3)[C@]2(O)C4` [Compound 26, 17-cyclopropylmethyl-6,7-didehydro-4,5α-epoxy-3,14β-dihydroxy-1',7'-(2,2-dimethylpropano)-6,7,2',3'-indolomorphinan], with 3.16 nM.

Regarding `COc1ccc2c3c1c1c(n3CCC2)[C@@H]2Oc3c(O)ccc4c3[C@@]23CCN(CC2CC2)[C@H](C4)[C@]3(O)C1` [Compound 27, 17-cyclopropylmethyl-6,7-didehydro-4,5α-epoxy-3,14β-dihydroxy-1',7'-trimethylene-4'-methoxy-6,7,2',3'-indolomorphinan], the Kb at δ-opioid is 12.6 nM. The same measure, in the same setting: under `C=CCN1CC[C@]23c4c5ccc(O)c4O[C@H]2c2c(c4cccc6c4n2CCC6)C[C@@]3(O)[C@H]1C5` [Compound 30, 17-allyl-6,7-didehydro-4,5α-epoxy-3,14β-dihydroxy-1',7'-trimethylene-6,7,2',3'-indolomorphinan] stands 12.6 nM. For `C=CCN1CC[C@]23c4c5ccc(OC)c4O[C@H]2c2c(c4cccc6c4n2CCC6)C[C@@]3(O)[C@H]1C5` [Compound 34, 17-allyl-6,7-didehydro-4,5α-epoxy-3-methoxy-14β-hydroxy-1',7'-trimethylene-6,7,2',3'-indolomorphinan], the ED50 in the experiment with capsaicin-induced cough is 1.1 µg/kg. Same read-out and setting: then `COc1ccc2c3c1O[C@H]1c4c(c5cc(Br)cc6c5n4CCC6)C[C@@]4(O)[C@@H](C2)N(CC2CC2)CC[C@]314` [Compound 35, 17-cyclopropylmethyl-6,7-didehydro-4,5α-epoxy-3-methoxy-14β-hydroxy-1',7'-trimethylene-5'-bromo-6,7,2',3'-indolomorphinan], with 21.2 µg/kg; and `COc1ccc2c3c1O[C@H]1c4c(c5cccc6c5n4CCC6(C)C)C[C@@]4(O)[C@@H](C2)N(CC2CC2)CC[C@]314` [Compound 40, 17-cyclopropylmethyl-6,7-didehydro-4,5α-epoxy-3-methoxy-14β-hydroxy-1',7'-(1,1-dimethylpropano)-6,7,2',3'-indolomorphinan], with 2.46 µg/kg. For `COc1ccc2c3c1O[C@H]1c4c(c5ccc6cccc7c6c5n4CC7)C[C@@]4(O)[C@@H](C2)N(CC2CC2)CC[C@]314` [Compound 42, 17-cyclopropylmethyl-6,7-didehydro-4,5α-epoxy-3-methoxy-14β-hydroxy-1',3"-ethylene-6',7'-benzo-6,7,2',3'-indolomorphinan], the 50% effective dose (ED50) in the experiment on capsaicin-induced cough is 21.1 µg/kg.

The compound `COc1ccc2c3c1O[C@H]1c4c(c5c(OC)ccc6c5n4CCC6)C[C@@]4(O)[C@@H](C2)N(CC2CC2)CC[C@]314` [Compound 44, 17-cyclopropylmethyl-6,7-didehydro-4,5α-epoxy-3,4'-dimethoxy-14β-hydroxy-1',7'-trimethylene-6,7,2',3'-indolomorphinan] returned a 50% effective dose (ED50) in the experiment on capsaicin-induced cough of 10.9 µg/kg.

In turn, `CO[C@@]12Cc3c(n4c5c(cccc35)CCC4)[C@@H]3Oc4c(O)ccc5c4[C@@]31CCN(CC1CC1)[C@@H]2C5` [Compound 66, 17-cyclopropylmethyl-6,7-didehydro-4,5α-epoxy-3-hydroxy-14β-methoxy-1',7'-trimethylene-6,7,2',3'-indolomorphinan] gave an antagonist equilibrium constant (Kb) on δ-opioid of 0.316 nM.
